US11333660B2, “Analytical process for predicting the therapeutic effect of BH3 mimetics” (MEDIZINISCHE HOCHSCHULE HANNOVER, priority 2017, dated 2022)

How the values were obtained:
[1] = tested on: human CD45+ cells (BV173) from spleen of untreated control mouse; assay: TMRE FACS on human CD45+ spleen cells from the control mouse; type: cell-based; details: for TMRE fluorescence / MOMP (FIG. 10): control mouse CD45+ cells, 1 μM, 1 h; for TMRE fluorescence relative to 100% at beginning: FCCP 5 μM 15 min
Description: (§1) Cells were concurrently immunologically stained with APC-labelled anti-human CD45 antibody, to discriminate human leukemic from murine cells, and with TMRE. Measurement was by FACS, with gating for live human cells.
[…] Concurrently, the cells were immunologically stained by adding a APC-labelled anti-human CD45 antibody to identify the tumour cells, and by adding TMRE. After 1 h, cells were analysed by FACS, with the gating set according to side scatter and forward scatter to select for live cells, and to select for CD45+ cells showing TMRE fluorescence.

[2] = tested on: human CD45+ cells (BV173) from spleen of ABT-199/DEX/DAS treated mouse; assay: TMRE FACS on human CD45+ spleen cells from the ABT-199/DEX/DAS treated mouse; type: cell-based; details: for TMRE fluorescence / MOMP (FIG. 10): ABT-199/DEX/DAS treated mouse CD45+ cells, 1 μM, 1 h; for TMRE fluorescence relative to 100% at beginning: ABT-199/DEX/DAS treated mouse spleen CD45+ cells, ABT-199 10 μM 1 h, FCCP 5 μM 15 min
Description: as §1
One of these BH3 mimetics was added to a separate aliquot of the cells suspended in cell culture medium to a final concentration of 1 μM. Concurrently, the cells were immunologically stained by adding a APC-labelled anti-human CD45 antibody to identify the tumour cells, and by adding TMRE. After 1 h, cells were analysed by FACS, with the gating set according to side scatter and forward scatter to select for live cells, and to select for CD45+ cells showing TMRE fluorescence.

[3] = tested on: CD19+ lymphoma cells in PBMC of a mantle-cell lymphoma patient; assay: TMRE FACS on live CD19+ cells of PBMC from a mantle-cell lymphoma patient; type: cell-based, human; details: 3 h; for effect of inducing MOMP (reduced TMRE fluorescence in CD19+ cells): 1 μM, FIG. 7; for % (MeanFL relative to negative control) / MeanFL (mean TMRE fluorescence for the live CD19+ cells): CD19 gate, BH3 mimetics 1000 nM
Description: From a blood sample that was drawn from a patient diagnosed to have mantle-cell lymphoma, PBMC were isolated by density gradient centrifugation and suspended in cell culture medium. No further separation of cells was done but all the PBMC were contained in each aliquot dispensed from the isolated PBMC. […] For measurement, TMRE was added for measuring mitochondrial membrane potential, and for discriminating CD19+ lymphoma cells from normal CD19− cells, anti-CD19 antibody, APC-labelled, was added.
Measurement was by FACS after 3 h incubation under cell culture conditions subsequent to addition of the compounds to the aliquots of the cells.
The FACS results shown in FIG. 7 were taken in one measurement for each aliquot. […] This gating was applied to the measurement of the dye of the anti-CD19 antibody (CD19 APC) as shown in the center column (b, e, h, k, n, q) (R2). The measurement results for the viable lymphoma CD19+ cells in relation to MOMP are shown in the right hand column (c, f, i, l, o, r), with TMRE fluorescence indicating MOMP, i.e. lower TMRE fluorescence indicating increased MOMP.

[4] = tested on: PBMC from a healthy donor; assay: TMRE FACS on PBMC from a healthy donor; type: cell-based, human; details: 3 h, ABT-199 1 μM, FCCP 5 μM, mock MFI 232
Description: (§2) PBMC were isolated by density gradient centrifugation using Biocoll from the heparinized blood sample of a patient diagnosed to have CLL (ABT-199, Venetoclax, is approved for treatment of CLL with 17p-deletion). As a comparison, PBMC from a healthy donor were isolated. PBMC were suspended in RPMI1640 cell culture medium and transferred as aliquots into separate tubes, to which ABT-199 was added to a final concentration of 1 μM and incubated at 37° C. for 3 h in a 5% CO2 atmosphere. Subsequently, TMRE was added to 50 nM and aliquots were further incubated for 30 min, then analysed by FACS according to the invention. As a negative control (mock), physiological saline was added, as a positive control FCCP to 5 μM (FCCP).

[5] = tested on: PBMC; assay: analytical process: TMRE fluorescence by FACS on PBMC aliquots (FIG. 1b); type: cell-based
Description: In this analysis incubation of PBMC aliquots in cell culture medium with the pharmaceutical compound, negative control or positive control was for 30 min, incubation after subsequent addition of fluorescent dye TMRE was for 10 min, both at 37° C., 5% CO2 atmosphere as cell culture conditions.

[6] = tested on: B-ALL cell line SUP-B15 (BCR-ABL-positive); assay: TMRE FACS measurement of MOMP in SUP-B15 cells; type: cell-based; details: 3 h
Description: As representatives for isolated PBMC, BM or LN mononuclear cells, the B-ALL cell lines SUP-B15, which expresses BCR-ABL (BCR-ABL-positive), and the BCR-ABL negative REH were used in the analytical process in suspension in cell culture medium RPMI1640. […] After incubation at 37° C. for 3 h, TMRE was added to a final concentration of 50 nM and the aliquots were incubated for further 15 min at 37° C., in a 5% CO2 atmosphere each time.
(§3) As a positive control, FCCP was added to one aliquot of the cell suspension to 5 μM final concentration. TMRE fluorescence was measured by FACS after 30 min incubation after addition of TMRE.

[7] = tested on: in vitro cultivated BV173 cells; assay: TMRE FACS on in vitro cultivated BV173 cells; type: cell-based, human; details: in vitro cultured BV173, ABT-199 10 μM 1 h; for TMRE fluorescence relative to 100% at beginning: FCCP 5 μM 15 min
[8] = tested on: PBMC or BM mononuclear cells from CML patients in chronic phase; assay: TMRE FACS on PBMC or BM cells from CML-CP patients; type: cell-based, human; details: ABT-199 1 μM, 3 h, CML-CP samples (n=7)
Description: (§4) PBMC or BM mononuclear cells were isolated by density gradient centrifugation from blood or bone marrow samples originating from patients who were newly diagnosed as ALL (n=12), from blood or bone marrow samples originating from CML patients in chronic phase (CML-CP, n=7), and from blood samples obtained from healthy volunteers (n=6). In accordance with the analytical process, PBMC or BM cells were incubated in cell culture medium with ABT-199 added to 1 μM for 3 h at 37° C. in a 5% CO2 atmosphere for cell culture conditions, followed by addition of TMRE to 50 nM and incubation for another 30 min, then analysed by FACS for fluorescence by TMRE.

[9] = tested on: PBMC from healthy donors; assay: TMRE FACS on PBMC from healthy volunteers; type: cell-based, human; details: ABT-199 1 μM, 3 h, healthy donors (n=6)
Description: as §4

[10] = tested on: PBMC or BM mononuclear cells from ALL patients; assay: TMRE FACS on PBMC or BM cells from ALL patients; type: cell-based, human; details: ABT-199 1 μM, 3 h, ALL samples (n=12)
Description: as §4

[11] = tested on: PBMC from a CLL patient; assay: TMRE FACS on PBMC from a CLL patient; type: cell-based, human; details: 3 h, ABT-199 1 μM, FCCP 5 μM, mock MFI 121
Description: as §2

[12] = tested on: BCR-ABL negative REH cells; assay: TMRE FACS measurement of MOMP in REH cells; type: cell-based; details: ABT-199 10 nM, 3 h
Description: As representatives for isolated PBMC, BM or LN mononuclear cells, the B-ALL cell lines SUP-B15, which expresses BCR-ABL (BCR-ABL-positive), and the BCR-ABL negative REH were used in the analytical process in suspension in cell culture medium RPMI1640. As a positive control for MOMP, FCCP was added to 5 μM to one aliquot, as a negative control an aliquot of the suspended cells was used with addition of the same volume of physiological saline, and ABT-199 was added to 10 nM final concentration. After incubation at 37° C. for 3 h, TMRE was added to a final concentration of 50 nM and the aliquots were incubated for further 15 min at 37° C., in a 5% CO2 atmosphere each time.

[13] = tested on: SUP-B15 cells; assay: propidium iodide (PI) staining of SUP-B15 cells; type: cell-based; details: 1 μM, 24 h process
Description: as §3
For comparison, apoptosis was measured by propidium iodide (PI) staining, the entire process having a duration of 24 h.

[14] = tested on: blood cells obtained from a CLL patient; details: 6 h after contact in vitro; cited from earlier work
[15] = CD19+ cells, BH3 mimetics 1 μM, FCCP 5 μM, in comparison to the negative control
[16] = control mouse spleen CD45+ cells, ABT-199 10 μM 1 h

In the case of `Cc1c(-c2c(-c3ccc(F)o3)sc3ncnc(O[C@H](Cc4ccccc4OCc4ccnn4CC(F)(F)F)C(=O)O)c23)ccc(OCCN2CCN(C)CC2)c1Cl` [S63845], the “TMRE fluorescence / MOMP (FIG. 10)” value [1] is reported as “high TMRE fluorescence”, the “TMRE fluorescence / MOMP (FIG. 10)” value [2] is reported as “high TMRE fluorescence” and the “effect of inducing MOMP (reduced TMRE fluorescence in CD19+ cells)” value [3] is reported as “less pronounced effect”. The “proportion of cells without MOMP” value [3, 15] was 56.7%, the “% (MeanFL relative to negative control)” value ([3]; FCCP 5 μM) was 56.7% and the “MeanFL (mean TMRE fluorescence for the live CD19+ cells)” value ([3]; FCCP 5 μM) was 396.

For `CC1(C)CCC(CN2CCN(c3ccc(C(=O)NS(=O)(=O)c4ccc(NCC5CCOCC5)c([N+](=O)[O-])c4)c(Oc4cnc5[nH]ccc5c4)c3)CC2)=C(c2ccc(Cl)cc2)C1` [ABT-199], the “proportion of cells with MOMP” value [1, 16] was 40%, the “TMRE fluorescence relative to 100% at beginning” value [1, 16] was “approx. 60%” and the “MFI (TMRE)” value [4] was 242. The “FACS peak distribution of TMRE fluorescence” value ([5]; ABT-199 5 μM to 10 μM, 30 min incubation) was “the peak at the position of the positive control increasing with the concentration”, the “TMRE fluorescence relative to 100% at beginning” value [2] was “no response” and the “induction of apoptosis by the process of the invention (TMRE)” value ([6]; 1 μM) was “significant induction of apoptosis”. The “reduction of MFI (TMRE)” value ([6]; ABT-199 10 nM, versus negative control) was “approx. 40%”, the “proportion of cells with MOMP” value [7] was 40% and the “TMRE fluorescence relative to 100% at beginning” value [7] was “approx. 60%”. The “effect of inducing MOMP (reduced TMRE fluorescence in CD19+ cells)” value [3] was “effective in inducing MOMP”, the “mean TMRE fluorescence relative to negative control” value [3, 15] was 9.3% and the “% (MeanFL relative to negative control)” value ([3]; FCCP 5 μM) was 9.3%. For the same compound, the “MeanFL (mean TMRE fluorescence for the live CD19+ cells)” value ([3]; FCCP 5 μM) was 65, the “induction of apoptosis (TMRE FACS)” value [8] was “essentially no induction of apoptosis” and the “induction of apoptosis (TMRE FACS)” value [9] was “essentially no induction of apoptosis”. The “induction of apoptosis (TMRE FACS)” value [10] was “strong induction of apoptosis”, the “MFI (TMRE)” value [11] was 53 and the “MFI (TMRE) in comparison to the negative control” value [12] was “essentially remains unaffected”. The “induction of apoptosis by PI staining” value [13] was “significant induction of apoptosis”.

In the case of `N#CC(C#N)=NNc1ccc(OC(F)(F)F)cc1` [FCCP, carbonyl cyanide-4-(trifluoro-methoxy)phenylhydrazone], the “TMRE fluorescence relative to 100% at beginning” value [1, 16] is reported as roughly 20%, the “MFI (TMRE)” value [4] is reported as 106 and the “mean fluorescence intensity (MFI) of TMRE” value ([5]; incubation 30 min, TMRE 10 min, 37° C., negative control MFI 612) is reported as 95. The “TMRE fluorescence relative to 100% at beginning” value [2] was roughly 20%, the “TMRE fluorescence relative to 100% at beginning” value [7] was roughly 20% and the “mean TMRE fluorescence relative to negative control” value [3, 15] was 15.6%. The “% (MeanFL relative to negative control)” value ([3]; FCCP 5 μM) was 15.6%, the “MeanFL (mean TMRE fluorescence for the live CD19+ cells)” value ([3]; FCCP 5 μM) was 109 and the “MFI (TMRE)” value [11] was 60.

For `CN1CC[C@H](c2c(O)cc(O)c3c(=O)cc(-c4ccccc4Cl)oc23)[C@H](O)C1` [Flavopiridol], the “mitochondrial membrane depolarization (JC-1)” value [14] is listed as “mitochondrial membrane depolarization was detected”.

With `CN(C)CC[C@H](CSc1ccccc1)Nc1ccc(S(=O)(=O)NC(=O)c2ccc(N3CCN(Cc4ccccc4-c4ccc(Cl)cc4)CC3)cc2)cc1[N+](=O)[O-]` [ABT-737] the “TMRE fluorescence / MOMP (FIG. 10)” value [1] was “reduced TMRE fluorescence”, the “TMRE fluorescence / MOMP (FIG. 10)” value [2] was “reduced TMRE fluorescence” and the “effect of inducing MOMP (reduced TMRE fluorescence in CD19+ cells)” value [3] was “effective in inducing MOMP”. For the same compound, the “mean TMRE fluorescence relative to negative control” value [3, 15] was 9.9%, the “% (MeanFL relative to negative control)” value ([3]; FCCP 5 μM) was 9.9% and the “MeanFL (mean TMRE fluorescence for the live CD19+ cells)” value ([3]; FCCP 5 μM) was 69.

With `Cc1c(-c2ccc(N3CCc4cccc(C(=O)Nc5nc6ccccc6s5)c4C3)nc2C(=O)O)cnn1CC12CC3CC(CC(C3)C1)C2` [A1331852] the “TMRE fluorescence / MOMP (FIG. 10)” value [1] was “strongly reduced TMRE fluorescence”, the “TMRE fluorescence / MOMP (FIG. 10)” value [2] was “strongly reduced TMRE fluorescence” and the “effect of inducing MOMP (reduced TMRE fluorescence in CD19+ cells)” value [3] was “less pronounced effect”. For the same compound, the “mean TMRE fluorescence relative to negative control” value [3, 15] was 29.1%, the “% (MeanFL relative to negative control)” value ([3]; FCCP 5 μM) was 29.1% and the “MeanFL (mean TMRE fluorescence for the live CD19+ cells)” value ([3]; FCCP 5 μM) was 203.
